Measurements published in patent US10299478B2, “Pyrazolyltriazolylpyridines as pesticides” (BAYER ANIMAL HEALTH GMBH, priority 2014, dated 2019).

Experiments:
Assay type in all cases: in vivo
[1] = test system: unfed adult cat fleas (Ctenocephalides felis); assay: Ctenocephalides felis oral test; settings: application rate 100 ppm, in citrated cattle blood, after 2 days
Protocol: Ctenocephalides felis-Oral Test
(§1) • Solvent: dimethyl sulphoxide
To produce a suitable preparation of active compound, 10 mg of active compound are mixed with 0.5 ml of dimethyl sulphoxide. Dilution with citrated cattle blood gives the desired concentration.
About 20 unfed adult cat fleas (Ctenocephalides felis) are placed into a chamber which is closed at the top and bottom with gauze. A metal cylinder whose bottom end is closed with parafilm is placed onto the chamber. The cylinder contains the blood/active compound preparation, which can be imbibed by the fleas through the parafilm membrane.
After 2 days, the kill in % is determined. 100% means that all of the fleas have been killed; 0% means that none of the fleas have been killed.

[2] = test system: Tick nymphs (Amblyomma hebraeum); assay: Amblyomma hebaraeum test; settings: application rate 100 ppm; nymphs immersed for one minute; after 42 days
Protocol: as §1
(§2) To produce an appropriate active ingredient formulation, 10 mg of active ingredient are mixed with 0.5 ml of dimethyl sulphoxide, and the concentrate is diluted with water to the desired concentration.
Tick nymphs (Amblyomma hebraeum) are placed into perforated plastic beakers and immersed in the desired concentration for one minute. The ticks are transferred on filter paper into a Petri dish and stored in a climate-controlled cabinet.
After 42 days, the kill in % is determined. 100% means that all of the ticks have been killed; 0% means that none of the ticks have been killed.

[3] = test system: adult dog ticks (Rhipicephalus sanguineus); assay: Rhipicephalus sanguineus in vitro contact test with adult brown dog ticks; settings: coated test tube, after 48 h
Protocol: Rhipicephalus sanguineus-In Vitro Contact Tests with Adult Brown Dog Ticks
(§3) For the coating of the test tubes, 9 mg of active compound are first dissolved in 1 ml of acetone p.a. and then diluted to the desired concentration with acetone p.a. 250 μl of the solution are distributed homogeneously on the inner walls and the base of a 25 ml test tube by turning and rocking on an orbital shaker (rocking rotation at 30 rpm for 2 h). With 900 ppm active compound solution and internal surface 44.7 cm^2, given homogeneous distribution, an area-based dose of 5 μg/cm^2 is achieved.
After the solvent has evaporated off, the tubes are populated with 5-10 adult dog ticks (Rhipicephalus sanguineus), sealed with a perforated plastic lid and incubated in a horizontal position in the dark at room temperature and ambient humidity. After 48 h, efficacy is determined. To this end, the ticks are knocked to the floor of the tube and incubated on a hotplate at 45-50° C. for not more than 5 min. Ticks which remain motionless on the floor or move in such an uncoordinated manner that they are unable to deliberately avoid the heat by climbing upwards are considered to be dead or moribund.
An efficacy of 100% means that all the ticks were dead or moribund. 0% efficacy means that none of the ticks had been harmed.

[4] = test system: larvae of the mustard beetle (Phaedon cochleariae); assay: Phaedon cochleariae spray test; settings: application rate 100 g/ha; Chinese cabbage leaf discs sprayed; after 7 days
Protocol: Phaedon cochleariae-Spray Test
(§4) • Solvent: 78.0 parts by weight of acetone • 1.5 parts by weight of dimethylformamide • Emulsifier: alkylaryl polyglycol ether
(§5) To produce an appropriate active ingredient formulation, 1 part by weight of active ingredient is dissolved using the specified parts by weight of solvent and made up with water containing an emulsifier concentration of 1000 ppm until the desired concentration is attained. To produce further test concentrations, the preparation is diluted with emulsifier-containing water.
Discs of Chinese cabbage leaves (Brassica pekinensis) are sprayed with an active ingredient formulation of the desired concentration and, after drying, populated with larvae of the mustard beetle (Phaedon cochleariae).
After 7 days, efficacy in % is determined. 100% means that all the beetle larvae have been killed; 0% means that no beetle larvae have been killed.

[5] = test system: engorged adult female cattle ticks (Boophilus microplus); assay: Boophilus microplus injection test; settings: application rate 20 μg/animal; injection into the abdomen; assessed after 7 days
Protocol: Boophilus microplus-Injection Test
as §1
To produce an appropriate active ingredient formulation, 10 mg of active ingredient are mixed with 0.5 ml of solvent and the concentrate is diluted with solvent to the desired concentration.
1 μl of the active ingredient solution is injected into the abdomen of 5 engorged adult female cattle ticks (Boophilus microplus). The animals are transferred into dishes and kept in a climate-controlled room.
(§6) Efficacy is assessed after 7 days by laying of fertile eggs. Eggs which are not visibly fertile are stored in a climate-controlled cabinet until the larvae hatch after about 42 days. An efficacy of 100% means that none of the ticks has laid any fertile eggs; 0% means that all the eggs are fertile.

[6] = test system: greenhouse red spider mite (Tetranychus urticae); assay: Tetranychus urticae spray test, OP-resistant; settings: application rate 100 g/ha; bean leaf discs sprayed; after 6 days
Protocol: Tetranychus urticae-Spray Test, OP-Resistant
as §4, §5
Discs of bean leaves (Phaseolus vulgaris) infested by all stages of the greenhouse red spider mite (Tetranychus urticae) are sprayed with an active ingredient formulation of the desired concentration.
After 6 days, efficacy in % is determined. 100% means that all the spider mites have been killed; 0% means that no spider mites have been killed.

[7] = test system: cattle ticks (Boophilus microplus) Parkhurst strain, SP-resistant; assay: Boophilus microplus dip test; settings: application rate 100 ppm, assessed after 7 days
Protocol: Boophilus microplus-Dip Test
• Test animals: cattle ticks (Boophilus microplus) Parkhurst strain, SP-resistant • Solvent: dimethyl sulphoxide
10 mg of active ingredient are dissolved in 0.5 ml of dimethyl sulphoxide. For the purpose of producing a suitable formulation, the active compound solution is diluted with water to the concentration desired in each case.
This active ingredient formulation is pipetted into tubes. 8-10 engorged adult female cattle ticks (Boophilus microplus) are transferred into a further tube with holes. The tube is immersed into the active compound preparation, and all the ticks are completely wetted. After the liquid has run out, the ticks are transferred on filter discs into plastic dishes and stored in a climate-controlled room.
as §6

[8] = test system: caterpillars of the armyworm (Spodoptera frugiperda); assay: Spodoptera frugiperda spray test; settings: application rate 100 g/ha; maize leaf discs sprayed; after 7 days
Protocol: Spodoptera frugiperda-Spray Test
as §4, §5
Leaf discs of maize (Zea mays) are sprayed with an active ingredient formulation of the desired concentration and, after drying, populated with caterpillars of the armyworm (Spodoptera frugiperda).
After 7 days, efficacy in % is determined. 100% means that all the caterpillars have been killed; 0% means that no caterpillars have been killed.

[9] = test system: L1 larvae of the Australian sheep blowfly (Lucilia cuprina); assay: Lucilia cuprina test; settings: application rate 100 ppm; minced horsemeat; after 2 days
Protocol: as §1, §2
About 20 L1 larvae of the Australian sheep blowfly (Lucilia cuprina) are transferred into a test vessel containing minced horsemeat and the active ingredient preparation of the desired concentration.
After 2 days, the kill in % is determined. 100% means that all the larvae have been killed; 0% means that no larvae have been killed.

[10] = test system: green peach aphid (Myzus persicae); assay: Myzus persicae spray test; settings: application rate 100 g/ha; Chinese cabbage leaf discs sprayed; after 6 days
Protocol: Myzus persicae-Spray Test
• Solvent: 78 parts by weight of acetone • 1.5 parts by weight of dimethylformamide • Emulsifier: alkylaryl polyglycol ether
as §5
Discs of Chinese cabbage leaves (Brassica pekinensis) infested by all stages of the green peach aphid (Myzus persicae) are sprayed with an active compound preparation of the desired concentration.
After 6 days, efficacy in % is determined. 100% means that all the aphids have been killed; 0% means that no aphids have been killed.

[11] = test system: adult houseflies (Musca domestica); assay: Musca domestica test; settings: application rate 100 ppm; sponge with sugar solution; after 2 days
Protocol: as §1, §2
Vessels containing a sponge treated with sugar solution and the active ingredient formulation of the desired concentration are populated with 10 adult houseflies (Musca domestica).
After 2 days, the kill in % is determined. 100% means that all of the flies have been killed; 0% means that none of the flies have been killed.

[12] = test system: adult cat fleas (Ctenocephalides felis); assay: Ctenocephalides felis in vitro contact test with adult cat fleas; settings: application rate 500 g/ha; coated test tube; after 48 h
Protocol: Ctenocephalides felis—In Vitro Contact Tests with Adult Cat Fleas
as §3, with “[…]” for “μg/cm^2”
After the solvent has evaporated off, the tubes are populated with 5-10 adult cat fleas (Ctenocephalides felis), sealed with a perforated plastic lid and incubated in a horizontal position at room temperature and ambient humidity. After 48 h, efficacy is determined. To this end, the test tubes are stood upright and the fleas are knocked to the base of the tube. Fleas which remain motionless at the base or move in an uncoordinated manner are considered to be dead or moribund.
100% efficacy means that all the fleas were dead or moribund. 0% efficacy means that no fleas were harmed.

[13] = test system: southern root-knot nematode (Meloidogyne incognita); assay: Meloidogyne incognita test; settings: application rate 20 ppm; lettuce in sand; after 14 days
Protocol: Meloidogyne incognita Test
• Solvent: 125.0 parts by weight of acetone
To produce an appropriate active ingredient formulation, 1 part by weight of active ingredient is mixed with the stated amount of solvent and the concentrate is diluted with water to the desired concentration.
Vessels are filled with sand, active ingredient solution, an egg/larvae suspension of the southern root-knot nematode (Meloidogyne incognita) and lettuce seeds. The lettuce seeds germinate and the plants develop. The galls develop on the roots.
After 14 days, the nematicidal efficacy in % is determined by the formation of galls. 100% means that no galls were found; 0% means that the number of galls on the treated plants corresponds to the untreated control.

SMILES	efficacy (kill of fleas) [1] [%]	efficacy (kill of ticks) [2] [%]	efficacy (ticks dead or moribund) ([3]; application rate 100 g/ha) [%]	efficacy (beetle larvae killed) [4] [%]	efficacy (laying of fertile eggs) [5] [%]	efficacy (spider mites killed) [6] [%]	efficacy (laying of fertile eggs) [7] [%]	efficacy (caterpillars killed) [8] [%]	efficacy (kill of larvae) [9] [%]	efficacy (aphids killed) [10] [%]	efficacy (kill of flies) [11] [%]	efficacy (fleas dead or moribund) [12] [%]	nematicidal efficacy (formation of galls) [13] [%]	efficacy (ticks dead or moribund) ([3]; application rate 20 g/ha) [%]
Cn1nc(C(F)(F)C(F)(F)F)c(C(F)(F)F)c1-n1cc(-c2cnc(Cl)c(C(=O)NC3(C#N)CC3)c2)nn1 [Ia-1]	100	100	100	100	100	90	100	–	–	–	–	–	–	–
Cn1nc(C(F)(F)C(F)(F)F)c(C(F)(F)F)c1-n1cc(-c2cnc(Cl)c(C(=O)NC3CC3)c2)nn1 [Ia-2, 2-Chloro-N-cyclopropyl-5-[1-[2-methyl-5-(1,1,2,2,2-pentafluoroethyl)-4-(trifluoromethyl)pyrazol-3-yl]triazol-4-yl]pyridine-3-carboxamide]	100	100	100	100	100	100	100	100	100	90	100	–	–	–
Cc1ncc(-c2cn(-c3c(C(F)(F)F)c(C(F)(F)C(F)(F)F)nn3C)nn2)cc1C(=O)NC1(C#N)CC1 [Ia-3]	100	–	100	100	100	100	–	–	95	100	80	100	–	–
Cc1ncc(-c2cn(-c3c(C(F)(F)F)c(C(F)(F)C(F)(F)F)nn3C)nn2)cc1C(=O)NC1CC1 [Ia-4]	100	100	100	100	100	100	100	100	100	90	100	100	90	–
COc1ncc(-c2cn(-c3c(C(F)(F)F)c(C(F)(F)C(F)(F)F)nn3C)nn2)cc1C(=O)NC1(C#N)CC1 [Ia-5]	100	–	100	100	100	–	–	100	100	–	100	–	–	–
COc1ncc(-c2cn(-c3c(C(F)(F)F)c(C(F)(F)C(F)(F)F)nn3C)nn2)cc1C(=O)NC1CC1 [Ia-6]	100	–	–	100	100	–	–	–	100	–	100	–	–	80
